Reference: the SangsterLogP compilation

Settings: pH 2.0

`O=S(=O)(/C=C/C=C/Sc1ccccc1)c1ccccc1` and `C[C@H](NC1=NS(=O)(=O)c2ccccc21)C(=O)OCC(=O)/C=C1/N(C)c2ccccc2C1(C)C` are within 0.2 log units of each other in logD: 4.03 for the first, 4.21 for the second.

For `COc1ccc([C@@H](C(=O)Nc2ccc3c(c2)OCCO3)N(C)C(=O)Cc2c[nH]c3ccccc23)cc1`, the logD was 3.76.

Same assay, conditions: pH 5.0

Compared with `CN1C(=CC(=O)COC(=O)C(c2ccccc2)c2ccccc2)C(C)(C)c2ccccc21`, `O=C(NCc1ccccc1)/C(=C/c1ccc(Cl)cc1)NC(=O)c1ccccc1` is lower in logD: 6.27 for the first, 4.41 for the second.

First: CCOC(=O)c1c(N2C(=O)[C@@H]3CC(C)=C(C)C[C@H]3C2=O)sc(C)c1C
Second: CCOC(=O)c1c(NC=C2C(=O)N(C)C(=O)N(C)C2=O)sc2c1CC[C@@H](CC)C2
The logD of the first is lower: 4.56 for the first, 5.76 for the second.

Going from `COc1ccc(C(=O)/C=C/C=C(Cl)Cl)cc1` to `CCOC(=O)c1ccc(C#N)cc1`, the logD falls from 4.4 to 1.87.

Compared with `Cc1cccc(NC(=O)Cc2ccc(Br)cc2)c1C`, `CC(=O)Nc1ccc(C(=O)N(Cc2ccco2)C2(C(=O)Nc3c(C)cccc3C)CCCCC2)cc1` is higher in logD: 4.05 for the first, 4.62 for the second.

Going from `COC(=O)N[C@H](O)C(=O)c1ccccc1` to `O=C(N[C@H](Sc1ncccn1)C(=O)c1ccccc1)c1ccccc1`, the logD rises from 1.41 to 3.62.

First: C[C@@H](OC(=O)c1cccc(C(F)(F)F)c1)C(N)=O
Second: C[C@@H](Oc1ccccc1)C(=O)Nc1ccc(OC(F)(F)F)cc1
The logD of the first is lower: 2.75 for the first, 4.77 for the second.

Compared with `CC(C)C(=O)N[C@H](Oc1ccc(C=O)cc1)C(Cl)(Cl)Cl`, `CCN(CC)S(=O)(=O)c1ccc(/C=C/C(=O)NC2CCCCC2)cc1` is higher in logD: 3.68 for the first, 4.34 for the second.

First: CC1(C)CC(=O)C2=C(C1)OC(N)=C(C#N)[C@H]2c1ccc(C(F)(F)F)cc1
Second: CC1(C)CC(=O)C2=C(C1)N(c1c(F)cccc1F)C(N)=C(C#N)[C@@H]2c1cccc(Cl)c1
The logD of the first is lower: 4.55 for the first, 5.04 for the second.

Compared with `CCCOc1ccc(NC(=O)C[C@H]2C(=O)N(c3ccc(Cl)cc3)C(=S)N2C2CC2)cc1`, `Cc1ccc(N2C(=O)N(c3cccc(Cl)c3)[C@@H]3CS(=O)(=O)C[C@@H]32)cc1` is lower in logD: 5.41 for the first, 3.56 for the second.

Compared with `CC(C)(C)C(=O)Nc1ccc(NC(=O)C(C)(C)C)cc1`, `C=C1NC(=S)N[C@H](c2ccc(-c3ccc(C(C)=O)cc3)o2)[C@H]1C(=O)OC(C)(C)C` is higher in logD: 2.79 for the first, 4.53 for the second.

First: CCOC(=O)CN1C(=O)[C@@H](OC(=O)c2ccccc2)[C@@H](OC(=O)c2ccccc2)C1=O
Second: C[C@@H]1CCC[C@H](C)N1C(=O)COC(=O)c1ccc2c(c1)S(=O)(=O)c1ccccc1C2=O
The logD of the first is higher: 5 for the first, 4.39 for the second.

First: CCCCN1C(=O)N(C)[C@@H]2[C@H]1N(C)C(=O)N2CCCC
Second: C#CCN1C(=O)[C@H]2CC[C@@](C)(C1=O)C2(C)C
The logD of the first is higher: 2.69 for the first, 2.28 for the second.

Going from `O=C1CC[C@H]2CCCC[C@@]2(O)O1` to `C[C@@H]1CCCC[C@H]1NC(=O)COC(=O)C1=COCCO1`, the logD rises from 1.16 to 2.48.

Going from `CC1(C)C[C@](C)(O)[P@](C)(=O)O1` to `CCN(CC)C(=O)[C@@]12CC[C@@](C)(C(=O)O1)C2(C)C`, the logD rises from 0.71 to 2.66.

First: O=C(NCc1ccc(F)cc1)c1nn2c(c1Br)N[C@H](c1cccs1)C[C@H]2C(F)(F)F
Second: O=C(c1cccc(COCC(F)(F)C(F)F)c1)N1CC[C@@H](C(F)(F)F)n2nccc21
The logD of the first is higher: 5.54 for the first, 4.27 for the second.

Going from `CCC[C@@H]1C(=O)C[C@H](C(C)C)C(C#N)(C#N)C1(C#N)C#N` to `Cc1cc(C)c([C@H]2[C@@H]3CCCC=C3C(C#N)=C(N)C2(C#N)C#N)c(C)c1`, the logD rises from 3.3 to 5.48.

First: C[C@H]1CN(C(=O)c2csc3c2CCCC3)/C(=N/c2ccc(Cl)cc2)S1
Second: COc1ccc([C@@H]2[C@H]3C(=O)N(c4sc5c(c4C#N)CCCC5)C(=O)[C@@H]3ON2c2ccccc2C)cc1
The logD of the first is lower: 5.53 for the first, 5.83 for the second.

Going from `CCOC(=O)C1=C(C)OC(N)=C(C#N)[C@H]1c1cccc(I)c1` to `COc1ccccc1/C=N/n1c(C)cc(C)c(C#N)c1=O`, the logD falls from 4.48 to 3.08.

Going from `CCOc1cc(C(=O)Nc2ccc(OC)c(OC)c2)cc(OCC)c1OCC` to `COc1cc([C@H]2C(C(=O)c3ccccc3)=C(N)N(c3ccccc3C(F)(F)F)C3=C2C(=O)CCC3)cc(OC)c1OC`, the logD rises from 4.11 to 4.51.

`N#C[C@@H](Cc1cccs1)c1ncc(C(F)(F)F)cc1Cl` and `COC(=O)[C@H](CCSC)NC(=O)c1cc2c(n(-c3ccccc3)c1=O)CC(C)(C)CC2=O` are within 0.2 log units of each other in logD: 4.09 for the first, 3.97 for the second.

`CCOC(=O)c1c(NC(=O)[C@@H]2C[C@H]3CC[C@@H]2C3)sc(C(=O)N(CC)CC)c1C` and `COc1ccc([C@@H]2[C@H](C(=O)N3CCCCCC3)c3ccccc3C(=O)N2Cc2ccc(F)cc2)cc1` are within 0.2 log units of each other in logD: 5.05 for the first, 5.01 for the second.

Same assay, conditions: pH 6.5

First: COc1cc(/C=C(\NC(=O)c2ccccc2)C(=O)Nc2cccc(CO)c2)ccc1OC(C)=O
Second: Cc1ccc(NC(=O)COC(=O)/C(=C/c2cccs2)c2cccs2)c(C)c1
The logD of the first is higher: 4.04 for the first, 3.83 for the second.

First: COc1cccc(/C=C/C(=O)OCC(=O)c2cc(C)n(-c3cc(C)on3)c2C)c1
Second: COC(=O)c1cc(N2C(=O)[C@H]3[C@@H](C2=O)[C@]2(C(OC(C)=O)OC(C)=O)C=C[C@H]3O2)ccc1Cl
The logD of the first is higher: 5.2 for the first, 3.77 for the second.

Going from `COc1ccc(N2C(=S)N=C(N[C@@H]([C@@H](Oc3ccc(Cl)cc3)n3cncn3)C(C)(C)C)C2(C)C)cc1` to `Cc1ccc(N2CC(=O)N(/N=C/c3cn(-c4ccccc4)nc3-c3ccc(Cl)cc3)CC2=O)cc1`, the logD rises from 5.56 to 6.14.

Compared with `O=C(c1ccc(Cl)cc1)N(Cc1ccc(Cl)c(Cl)c1)N1C(=O)[C@@H]2CCCC[C@H]2C1=O`, `NC(=O)C(C(=O)/C=C/c1ccc(Cl)cc1)=C1SCS1` is lower in logD: 5.51 for the first, 3.64 for the second.

Compared with `N#CC1(C#N)[C@H](c2ccc(Br)s2)[C@@H](C(=O)c2ccccc2)N2c3ccccc3C=C[C@@H]21`, `CC(C)(C)C1(C)O[C@H](C(N)=O)[C@H](C(N)=O)O1` (stereo partly specified) is lower in logD: 5.05 for the first, 1.6 for the second.

With `COC[C@H](C)NC(=O)CCl` the logD was 0.61.

Same assay, conditions: pH 7.0

`Cc1ccc(N[C@H]2O[C@@H](CO)[C@H](O)[C@@H](O)[C@H]2O)cc1Br` showed a logD of 2.28.

Same assay, conditions: pH 7.3

First: O=C(Nc1ccccc1)[C@H]1CC(=O)N(Cc2ccccc2)/C(=N/c2ccc(F)cc2)S1
Second: COc1ccc([C@H]2C[C@@H](c3ccc(-c4ccccc4)cc3)Nc3ncnn32)cc1
The logD of the first is higher: 6 for the first, 5.42 for the second.

Compared with `COc1ccc([C@H]2C[C@H](C(F)(F)F)n3ncc(C(=O)N(C)Cc4cnn(C)c4C)c3N2)cc1OC`, `COc1cccc([C@@H]2C3=C(CCCC3=O)N=C(C)C2C(=O)OC[C@@H]2CCCO2)c1` (stereo partly specified) is lower in logD: 4.25 for the first, 3.62 for the second.

Compared with `Cc1cc(C)n(-c2ccc(-n3cccc3/C=C(\C#N)S(C)(=O)=O)cc2)n1`, `CSc1ncc2c(n1)-c1c(SC)sc(C(=O)Nc3ccc(Cl)cc3)c1CC2` is higher in logD: 4.25 for the first, 5.87 for the second.

In the case of `CCOc1ccc(Br)cc1[C@H]1C2=C(CC(C)(C)CC2=O)Nc2ncnn21`, the logD is reported as 3.85.

Same assay, conditions: pH 8.0

First: COc1ccc([C@@H](C)n2c(C)c3c(C)nnc(C)c3c2C)cc1
Second: Cc1sc2ncn(CC(=O)N[C@@H]3CCC[C@@H](C)[C@H]3C)c(=O)c2c1C
The logD of the first is lower: 3.43 for the first, 4.34 for the second.

Compound `COC(=O)c1c(N[C@@H](NC(C)=O)C(Cl)(Cl)Cl)sc2c1CCCC2` has a logD of 5.04.

Same assay, conditions: pH 10.0

First: CCO/C(O)=C/c1nc2nonc2nc1O
Second: CCOC(=O)C1=C(N)N2C(=O)[C@H](C)SC2=C(C(=O)OCC)[C@H]1c1ccc(Cl)cc1Cl
The logD of the first is lower: 1.61 for the first, 5.49 for the second.

Going from `COc1ccccc1[C@H]1CC(=O)C2=C(C1)NC(C)=C(C(=O)OC1CCCC1)[C@H]2c1ccc(OC(C)=O)cc1` to `CCSCCOC(=O)C1=C(C)NC2=C(C(=O)C[C@@H](c3cccs3)C2)[C@@H]1c1ccc(C(=O)OC)cc1`, the logD falls from 5.81 to 5.24.

First: CCOC(=O)[C@H]1N=C(C2=C(O)c3ccccc3C2=O)[C@@H]2C(=O)N(N(C)c3ncc(C(F)(F)F)cc3Cl)C(=O)[C@@H]21
Second: CCOC(=O)C1=NN[C@@]2(c3cccc([N+](=O)[O-])c3)C(=O)N(c3cccc(C(F)(F)F)c3)C(=O)[C@H]12
The logD of the first is lower: 4.38 for the first, 4.73 for the second.

Compared with `CC(C)(C)C(=O)[C@H]1[C@H](c2ccsc2)C(C#N)(C#N)[C@H]2C=Cc3ccccc3N12`, `CC1=C(C(=O)OCCc2ccccc2)[C@@H](c2ccc3c(c2)OCO3)C2=C(C[C@H](c3cccs3)CC2=O)N1` is higher in logD: 3.37 for the first, 5.44 for the second.

First: CCCCSC1=C(C#N)[C@H](c2cccc([N+](=O)[O-])c2)C(C(C)=O)=C(C)N1
Second: CCSCCOC(=O)C1=C(C)NC2=C(C(=O)C[C@@H](c3cccs3)C2)[C@H]1c1ccc2c(c1)OCO2
The logD of the first is lower: 4.44 for the first, 5 for the second.

First: Clc1cccc(Cl)c1Cn1ccc(Nc2nnc(Cc3ccc(-n4cnnn4)cc3)s2)n1
Second: Cc1ccc(Cl)c(OCc2ccc(-c3nc4c5c[nH]nc5ncn4n3)o2)c1
The logD of the first is higher: 4.99 for the first, 4.4 for the second.

First: CCn1c(SCC(=O)NC(C)(C)C)nnc1C1CCCCC1
Second: COc1ccc([C@@H]2C(C(=O)OCCOC(C)C)=C(C)NC3=C2C(=O)C[C@H](c2cccs2)C3)cc1OC
The logD of the first is lower: 3.2 for the first, 4.45 for the second.

With `CSc1ccc([C@@H]2[C@@H]3C(=O)N(c4cccc(C(F)(F)F)c4)C(=O)[C@H]3ON2c2ccccc2)cc1` the logD was 5.98.

Same assay, conditions: pH 10.5

Compared with `Cc1ccc(NCc2ccc3n2C/C(=C2/CCn4c(CNc5ccc(C)cc5)ccc42)C3=O)cc1`, `CN(c1ccccc1)S(=O)(=O)c1ccc(C(=O)N2CCN(c3ccccc3Cl)CC2)cc1` is lower in logD: 6.51 for the first, 5.31 for the second.

Going from `CCOc1cc(/C=N/n2cnc3sc(C)c(C)c3c2=O)cc(Br)c1OCC(N)=O` to `COCCOC(=O)C1=C(C)NC2=C(C(=O)CC(c3cccc(OC)c3)C2)C1c1coc2ccc(C)cc2c1=O` (stereo unspecified), the logD rises from 4.98 to 5.23.

Compared with `CC(=O)C1=C(C)NC(SCC(=O)Nc2ccccc2)=C(C#N)[C@H]1c1ccccc1Cl`, `COC(=O)CC1=C(C(=O)OC)[C@]2(C(=O)Nc3ccccc32)C(C(=O)OCc2ccccc2)=C(N)O1` is lower in logD: 4.97 for the first, 4.25 for the second.

`COc1cccc(C2=NN=C3OC(N)=C(C#N)[C@H](c4cc(OC)c(OC)cc4Br)[C@@H]32)c1` and `CCOc1ccc(C2=NN=C3OC(N)=C(C#N)[C@@H](c4ccco4)[C@@H]32)c(OCC)c1` are within 0.2 log units of each other in logD: 4.52 for the first, 4.48 for the second.

Going from `CN1C(=O)N(C)C2(c3ccccc3)Nn3c(s/c(=C\c4ccc(Br)cc4)c3=O)=NC12c1ccccc1` (stereo unspecified) to `Cc1ccc([C@@H](O)C#CC(O)(c2ccccc2)c2ccccc2)o1`, the logD falls from 5.72 to 3.53.

Compared with `N#CC1=C(N)Oc2c(c(=O)oc3ccccc23)[C@H]1c1cccs1`, `N#CC1=C(N)OC2=NN=C(c3cccs3)[C@@H]2[C@@H]1C1CCCCC1` is higher in logD: 2.34 for the first, 4.64 for the second.

Going from `C[C@@H](c1nc2c3cnn(-c4ccccc4)c3ncn2n1)n1cc([N+](=O)[O-])cn1` to `Nc1nc(O/N=C/c2ccc([N+](=O)[O-])cc2)nc(N2CCOCC2)n1`, the logD falls from 3.73 to 3.18.
